According to patent US20040097594A1 (priority 1998, published 2004):
Like-named read-outs stand apart in the source and are kept apart here.

What was measured:
HIV-1 protease = HIV-1 protease (Human immunodeficiency virus type 1 group M subtype B, UniProt P04585); assay: biochemical
HIV-1 (strain IIIB) = assay: microbe, parasite or virus in culture; type: cell-based; details: Human immunodeficiency virus 1, 120 h; MT4 cells infected with HIV-1 strain IIIB, 5 days; lower line of each compound's entry; read-out: IC50 (MT-4 cells)
[1] = HIV-1 protease, upper line of each compound's entry, read-out: Ki (enzyme)

Row | Compound | Ki (HIV-1 protease; [1]) | IC50 (HIV-1 (strain IIIB)) | Ki (HIV-1 protease)
1 | CS(=O)(=O)Nc1nc2cc(S(=O)(=O)N(C[C@@H](O)[C@H](Cc3ccccc3)NC(=O)O[C@H]3CO[C@H]4OCC[C@H]43)OC3CCCC3)ccc2[nH]1 [Compound 40, (3R,3aS,6aR)Hexahydrofuro[2,3-b]furan-3-yl-N-((1S,2R)-1-benzyl-3-(cyclopentyloxy)(2-[(methylsulfonyl)amino]benzimidazol-5-ylsulfonyl)amino-2-hydroxypropyl)carbamate] | < 1 nM | ≤ 100 nM | 
2 | CCC(CC)ON(C[C@@H](O)[C@H](Cc1ccccc1)NC(=O)OC(C)(C)C)S(=O)(=O)c1ccc(OC)cc1 [Example 161, tert-butyl(1S,2R)-1-benzyl-3-{(1-ethylpropoxy)[(4-methoxyphenyl)sulfonyl]amino}-2-hydroxypropylcarbamate] | 1 to 10 nM | > 1000 nM | 
3 | CC(C)ON(C[C@@H](O)[C@H](Cc1ccccc1)NC(=O)O[C@H]1CO[C@H]2OCC[C@H]21)S(=O)(=O)c1cccc(N)c1 [Compound 38] | < 1 nM | ≤ 100 nM | 
4 | O=C(N[C@@H](Cc1ccccc1)[C@@H](CN(OC1CCCC1)S(=O)(=O)c1ccc2c(c1)OCCO2)OP(=O)(O)O)O[C@H]1CO[C@H]2OCC[C@H]21 [Compound 144, (3R,3aS,6aR)hexahydrofuro[2,3-b]furan-3-yl N-[(1S,2R)-1-benzyl-3-[(cyclopentyloxy)(2,3-dihydro-1,4-benzodioxin-6-ylsulfonyl)amino]-2-(phosphonooxy)propyl]carbamate] |  | ≤ 100 nM | < 1 nM
5 | CC(C)ON(C[C@@H](O)[C@H](Cc1ccccc1)NC(=O)O[C@H]1CCOC1)S(=O)(=O)c1cccc(N)c1 [Compound 61, (3S)tetrahydro-3-furanyl N-(1S,2R)-3-[[(3-aminophenyl)sulfonyl](isopropoxy)amino]-1-benzyl-2-hydroxypropylcarbamate] | 1 to 10 nM | 500 to 1000 nM | 
6 | CONC(=O)CNc1cccc(S(=O)(=O)N(CC(O)C(Cc2ccccc2)NC(=O)OC2COC3OCCC23)OC2CCCC2)c1 (mixture of isomers) [Example 168, (3R,3aS,6aR)hexahydrofuro[2,3-b]furan-3-yl N-[(1S,2R)-1-benzyl-3-((cyclopentyloxy)[3-(2-[methoxyamino]-2-oxoethylamino)phenyl]sulfonylamino)-2-hydroxypropyl]carbamate and (3S,3aR,6aS)hexahydrofuro[2,3-b]furan-3-yl N-[(1S,2R)-1-benzyl-3-((cyclopentyloxy)[3-(2-[methoxyamino]-2-oxoethylamino)phenyl]sulfonylamino)-2-hydroxypropyl]carbamate] | < 1 nM | ≤ 100 nM | 
7 | CC(C)ON(C[C@@H](O)[C@H](Cc1ccccc1)NC(=O)OC(C)(C)C)S(=O)(=O)c1cccc(N)c1 [Compound 1] | 10 to 100 nM | > 1000 nM | 
8 | CS(=O)(=O)Nc1nc2cc(S(=O)(=O)N(C[C@@H](O)[C@H](Cc3ccccc3)NC(=O)O[C@@H]3CO[C@@H]4OCC[C@@H]43)OC3CCCC3)ccc2[nH]1 [Compound 39, (3S,3aR,6aS)Hexahydrofuro[2,3-b]furan-3-yl-N-((1S,2R)-1-benzyl-3-(cyclopentyloxy)(2-[(methylsulfonyl)amino]benzimidazol-5-ylsulfonyl)amino-2-hydroxypropyl)carbamate] | < 1 nM | 100 to 500 nM | 
9 | COc1ccc(S(=O)(=O)N(C[C@@H](O)[C@H](Cc2ccccc2)NC(=O)OC(C)(C)C)OC2CCCCC2)cc1 [Compound 23, tert-butyl N-((1S,2R)-1-benzyl-3-(cyclohexyloxy)[(4-methoxyphenyl)sulfonyl]amino-2-hydroxypropyl)carbamate] |  | > 1000 nM | 1 to 10 nM
10 | COC(=O)NCCNc1cccc(S(=O)(=O)N(CC(O)C(Cc2ccccc2)NC(=O)OC2COC3OCCC23)OC2CCCC2)c1 (mixture of isomers) [Compound 124, (3R,3aS,6aR)hexahydrofuro[2,3-b]furan-3-yl N-[(1S,2R)-1-benzyl-3-((cyclopentyloxy)[3-(2-[(methoxycarbonyl)amino]ethylamino)phenyl]sulfonylamino)-2-hydroxypropyl]carbamate and (3S,3aR,6aS)hexahydrofuro[2,3-b]furan-3-yl N-[(1S,2R)-1-benzyl-3-((cyclopentyloxy)[3-(2-[(methoxycarbonyl)amino]ethylamino)phenyl]sulfonylamino)-2-hydroxypropyl)carbamate] | < 1 nM | ≤ 100 nM | 
11 | NC(=O)c1cccc(S(=O)(=O)N(C[C@@H](O)[C@H](Cc2ccccc2)NC(=O)O[C@H]2CO[C@H]3OCC[C@H]32)OC2CCCC2)c1 [Example 173, (3R,3aS,6aR)hexahydrofuro[2,3-b]furan-3-yl N-(1S,2R)-3[[(3-carbamoylphenyl)sulfonyl](cyclopentyloxy)amino]-1-benzyl-2-hydroxypropyl carbamate] | < 1 nM | ≤ 100 nM | 
12 | O=C(N[C@@H](Cc1ccccc1)[C@H](O)CN(OC1CCCC1)S(=O)(=O)c1ccc2[nH]ncc2c1)OC1CO[C@H]2OCC[C@@H]12 (stereo partly drawn) [Compound 57, (3aS,6aR)Hexahydrofuro[2,3-b]furan-3-yl N-(1S,2R)-1-benzyl-3-[(cyclopentyloxy)(1H-indazol-5-ylsulfonyl)amino]-2-hydroxypropylcarbamate] | < 1 nM | ≤ 100 nM | 
13 | CNC(=O)NCCNc1cccc(S(=O)(=O)N(CC(O)C(Cc2ccccc2)NC(=O)OC2COC3OCCC23)OC2CCCC2)c1 [Compound 121, (3R,3aS,6aR)hexahydrofuro[2,3-b]furan-3-yl N-(1S,2R)-1-benzyl-3-[(cyclopentyloxy)(3-[(2-[(methylamino)carbonyl]aminoethyl)amino]phenylsulfonyl)amino]-2-hydroxypropylcarbamate and (3S,3aR,6aS)hexahydrofuro[2,3-b]furan-3-yl N-(1S,2R)-1-benzyl-3-[(cyclopentyloxy)(3-[(2-[(methylamino)carbonyl]aminoethyl)amino]phenylsulfonyl)amino]-2-hydroxypropylcarbamate] | < 1 nM | 100 to 500 nM | 
14 | COc1ccc(S(=O)(=O)N(C[C@@H](O)[C@H](Cc2ccccc2)NC(=O)c2cccc(O)c2C)OC2CCOCC2)cc1 [Compound 75, N-(1S,2R)-1-benzyl-2-hydroxy-3-[[(4-methoxyphenyl)sulfonyl](tetrahydro-2H-pyran-4-yloxy)amino]propyl-3-hydroxy-2-methylbenzamide] | < 1 nM | > 500 nM | 
15 | NC(=O)C[C@H](NC(=O)c1ccc2ccccc2n1)C(=O)N[C@@H](Cc1ccccc1)[C@H](O)CN(OC1CCCC1)S(=O)(=O)c1cccc(N)c1 [Compound 49, (2S)-N^1-(1S,2R)-3-[[(3-aminophenyl)sulfonyl](cyclopentyloxy)amino]-1-benzyl-2-hydroxypropyl-2-[(2-quinolinylcarbonyl)amino]butanediamide] | < 1 nM | ≤ 100 nM | 
16 | Nc1cccc(S(=O)(=O)N(C[C@@H](O)[C@H](Cc2ccccc2)NC(=O)O[C@H]2CCOC2)OC2CCCC2)c1 [Compound 27, (3S)tetrahydro-3-furanyl N-(1S,2R)-3-[[(3-aminophenyl)sulfonyl](cyclopentyloxy)amino]-1-benzyl-2-hydroxypropylcarbamate] | < 1 nM | 500 to 1000 nM | 
17 | CC(C)ON(C[C@@H](O)[C@H](Cc1ccccc1)NC(=O)OC(C)(C)C)S(=O)(=O)c1ccc(N)c(N)c1 [Compound 2] | 10 to 100 nM | > 1000 nM | 
18 | CCC(C)ON(C[C@@H](O)[C@H](Cc1ccccc1)NC(=O)c1cccc(O)c1C)S(=O)(=O)c1ccc(OC)cc1 (stereo partly drawn) [Compound 70] | < 1 nM | > 500 nM | 
